Results reported in article PMC4775225, “Bromodomain inhibition of the transcriptional coactivators CBP/EP300 as a therapeutic strategy to target the IRF4 network in multiple myeloma” (eLife, 2016).
Like-named read-outs stand apart in the source and are kept apart here.

Assays:
IRF4 mRNA = IRF4 mRNA expression, qRT-PCR; assay type: cell-based, human; conditions: for IC50: Homo sapiens, read-out: IC50, inhibition of IRF4 mRNA expression; for log2FC (IRF4): 2.5 μM, 6 hr, log2 fold change relative to DMSO
Method: Total RNA was prepared with an RNeasy Mini Kit (Qiagen, Inc.; Hilden, Germany) with on column DNAse digestion and submitted to Ocean Ridge Biosciences (Palm Beach Gardens, FL) for sequencing and mapping. The data in RPKM for each gene with compound treatment was compared to DMSO treatment, and log2 fold changes were used for further analysis. Rank ordered gene lists were used for Gene Set Enrichment Analysis ([Subramanian et al., 2005]). RNA preparation, cDNA synthesis, and qRT-PCR were performed as described ([Mertz et al., 2011]). For dose titration experiments, cells in 96 -well plates were lysed in lysis buffer (1% Triton X-100, […] pH 2.5) and used directly for cDNA synthesis and qRT-PCR. Primer sequences can be found in Supplementary file 1.

JJN3 = test: Viability, resazurin, 6 days; assay type: cell-based; conditions: Homo sapiens, JJN-3, 144 h, JJN3, myeloma
Method: (§1) Cells were plated at 5000–10000 cells per well of 96-well plates containing titrations of the compounds as indicated. After incubation, the cells were incubated with 500 μg/ml resazurin (Sigma) in PBS for 2–8 hr, and fluorescence was measured (Ex 530 nm, Em 590 nm). Cell cycle analysis was performed as described previously ([Mertz et al., 2011]). For visualization, DNA content histograms were generated with GraphPad Prism. Dose-response curves were generated by plotting the normalized percent growth, percent sub-G1 and percent increase in G0/G1 at each dose values. GI50 values were determined as the concentration at which viability was 50% of the DMSO value and calculated by a four-parameter non-linear regression model in GraphPad Prism.

SET2 = test: Viability, resazurin, 6 days; assay type: cell-based; conditions: Homo sapiens, SET-2, 144 h, SET2 D6, AML
Method: as §1

KMS20 = test: Viability, resazurin, 6 days; assay type: cell-based; conditions: Homo sapiens, KMS-20, 144 h, KMS20, myeloma
Method: as §1

HL60 = test: Viability, resazurin, 6 days; assay type: cell-based; conditions: Homo sapiens, HL-60, 144 h, HL60, APL
Method: as §1

OCI-AML-5 = test: Viability, resazurin, 6 days; assay type: cell-based; conditions: Homo sapiens, 144 h, OCI-AML-5, AML
Method: as §1

SKM-1 = test: Viability, resazurin, 6 days; assay type: cell-based; conditions: Homo sapiens, 144 h, SKM-1, AML
Method: as §1

KMS12PE = test: Viability, resazurin, 6 days; assay type: cell-based; conditions: Homo sapiens, KMS-12-PE, 144 h, myeloma
Method: as §1

KMS12BM = test: Viability, resazurin, 6 days; assay type: cell-based; conditions: Homo sapiens, KMS-12-BM, 144 h, myeloma
Method: as §1

380 = test: Viability, resazurin, 6 days; assay type: cell-based; conditions: Homo sapiens, 144 h, 380, ALL
Method: as §1

THP-1 = test: Viability, resazurin, 6 days; assay type: cell-based; conditions: Homo sapiens, 144 h, THP-1, AML
Method: as §1

MOLM-13 = test: Viability, resazurin, 6 days; assay type: cell-based; conditions: Homo sapiens, 144 h, MOLM-13, AML
Method: as §1

OCI-AML-3 = test: Viability, resazurin, 6 days; assay type: cell-based; conditions: Homo sapiens, 144 h, OCI-AML-3, AML
Method: as §1

KMS21BM = test: Viability, resazurin, 6 days; assay type: cell-based; conditions: Homo sapiens, KMS-21BM, 144 h, myeloma
Method: as §1

KMS-11 = test: Viability, resazurin, 6 days; assay type: cell-based; conditions: Homo sapiens, 144 h, KMS-11, myeloma
Method: as §1

EJM = test: Viability, resazurin, 6 days; assay type: cell-based; conditions: Homo sapiens, 144 h, myeloma
Method: as §1

SKNO-1 = test: Viability, resazurin, 6 days; assay type: cell-based; conditions: Homo sapiens, 144 h, SKNO-1, AML
Method: as §1

MOLT4 = test: Viability, resazurin, 6 days; assay type: cell-based; conditions: Homo sapiens, MOLT-4, 144 h, MOLT4, ALL
Method: as §1

Jurkat = test: Viability, resazurin, 6 days; assay type: cell-based; conditions: Homo sapiens, 144 h, ALL
Method: as §1

NB4 = test: Viability, resazurin, 6 days; assay type: cell-based; conditions: Homo sapiens, NB-4, 144 h, NB4, APL
Method: as §1

KOPN-8 = test: Viability, resazurin, 6 days; assay type: cell-based; conditions: Homo sapiens, 144 h, KOPN-8, ALL
Method: as §1

Kasumi-2 = test: Viability, resazurin, 6 days; assay type: cell-based; conditions: Homo sapiens, 144 h, Kasumi-2, AML
Method: as §1

KMS28PE = test: Viability, resazurin, 6 days; assay type: cell-based; conditions: Homo sapiens, KMS-28PE, 144 h, myeloma
Method: as §1

REH = test: Viability, resazurin, 6 days; assay type: cell-based; conditions: Homo sapiens, 144 h, ALL
Method: as §1

ROS 50 = test: Viability, resazurin, 6 days; assay type: cell-based; conditions: Homo sapiens, 144 h, ROS 50, ALL
Method: as §1

KMS27 = test: Viability, resazurin, 6 days; assay type: cell-based; conditions: Homo sapiens, KMS-27, 144 h, KMS27, myeloma
Method: as §1

MN-60 = test: Viability, resazurin, 6 days; assay type: cell-based; conditions: Homo sapiens, 144 h, MN-60, ALL
Method: as §1

Kasumi-1 = test: Viability, resazurin, 6 days; assay type: cell-based; conditions: Homo sapiens, 144 h, Kasumi-1, AML
Method: as §1

SEM cells = test: Viability, resazurin, 6 days; assay type: cell-based; conditions: Homo sapiens, 144 h, ALL
Method: as §1

NOMO-1 = test: Viability, resazurin, 6 days; assay type: cell-based; conditions: Homo sapiens, 144 h, NOMO-1, AML
Method: as §1

PL21 = test: Viability, resazurin, 6 days; assay type: cell-based; conditions: Homo sapiens, PL-21, 144 h, PL21, APL
Method: as §1

KMS26 = test: Viability, resazurin, 6 days; assay type: cell-based; conditions: Homo sapiens, KMS-26, 144 h, KMS26, myeloma
Method: as §1

Tanoue = test: Viability, resazurin, 6 days; assay type: cell-based; conditions: Homo sapiens, 144 h, ALL
Method: as §1

`CCC(=O)N1CCOc2c(cc(-c3ccc(OC)c(OC)c3)cc2OC[C@H]2CCCN(C)C2)C1` [I-CBP112] showed an IC50 (IRF4 mRNA; OPM-2, OPM2, 6 hr) of 2.9 µM, an IC50 (IRF4 mRNA; LP-1, 6 hr) of 2 µM and a GI50 (JJN3) of 11.2 µM. It also gave a GI50 (SET2) of 12.6 µM, a GI50 (KMS20) of 2.97 µM and a GI50 (HL60) of 4.55 µM. The GI50 (OCI-AML-5) was > 20 µM, the GI50 (SKM-1) was 15.9 µM and the GI50 (KMS12PE) was 12.8 µM. For the same molecule, the GI50 (KMS12BM) was 2.36 µM, the GI50 380 was > 20 µM and the GI50 (THP-1) was 5.35 µM. For the same molecule, the GI50 (MOLM-13) was 15.7 µM, the GI50 (OCI-AML-3) was 5.51 µM and the GI50 (KMS21BM) was 3.26 µM. The GI50 (KMS-11) was 16.3 µM, the GI50 (EJM) was 14.6 µM and the GI50 (SKNO-1) was 9.5 µM. For the same molecule, the GI50 (MOLT4) was > 20 µM, the GI50 (Jurkat) was > 20 µM and the GI50 (NB4) was 17.8 µM. The GI50 (KOPN-8) was 18.5 µM, the GI50 (Kasumi-2) was 8.12 µM and the GI50 (KMS28PE) was > 20 µM. The GI50 (REH) was > 20 µM, the GI50 (ROS 50) was > 20 µM and the GI50 (KMS27) was > 20 µM. The GI50 (MN-60) was > 20 µM, the GI50 (Kasumi-1) was 3.22 µM and the GI50 (SEM cells) was 5.34 µM. The GI50 (NOMO-1) was 8.7 µM, the GI50 (PL21) was > 20 µM and the GI50 (KMS26) was 2.3 µM. The GI50 (Tanoue) was > 20 µM.

With `COc1ccc(CCc2nc3cc(-c4c(C)noc4C)ccc3n2C[C@H](C)N2CCOCC2)cc1Cl` [SGC-CBP30] the “log2FC (IRF4)” value (IRF4 mRNA; AMO1) was -1.36, the “log2FC (IRF4)” value (IRF4 mRNA; H929) was -0.75 and the IC50 (IRF4 mRNA; OPM-2, OPM2, 6 hr) was 1.1 µM. The IC50 (IRF4 mRNA; LP-1, 6 hr) was 0.86 µM, the “log2FC (IRF4)” value (IRF4 mRNA; KMM1) was -0.53 and the “log2FC (IRF4)” value (IRF4 mRNA; KMS28BM) was -0.93. The “log2FC (IRF4)” value (IRF4 mRNA; LP1) was -1.23, the “time to suppression of IRF4 after addition of compound” value (IRF4 mRNA; LP-1, 2.5 μM) was ≤ 2 h and the “log2FC (IRF4)” value (IRF4 mRNA; MOLP8) was -1.29. The “log2FC (IRF4)” value (IRF4 mRNA; OPM2) was -0.98, the “log2FC (IRF4)” value (IRF4 mRNA; RPMI8226) was -0.55 and the “log2FC (IRF4)” value (IRF4 mRNA; RS411) was -0.31. It also gave a GI50 (JJN3) of 2.53 µM, a GI50 (SET2) of 4.47 µM and a GI50 (KMS20) of 1.05 µM. For the same molecule, the GI50 (HL60) was 4.01 µM, the GI50 (OCI-AML-5) was > 20 µM and the GI50 (SKM-1) was 6.61 µM. It also gave a GI50 (KMS12PE) of 5.34 µM, a GI50 (KMS12BM) of 1.3 µM and a GI50 380 of 15.6 µM. The GI50 (THP-1) was 2.85 µM, the GI50 (MOLM-13) was 6.93 µM and the GI50 (OCI-AML-3) was 3.49 µM. It also gave a GI50 (KMS21BM) of 1.27 µM, a GI50 (KMS-11) of 2.41 µM and a GI50 (EJM) of 3.87 µM. It also gave a GI50 (SKNO-1) of 4.8 µM, a GI50 (MOLT4) of 7.62 µM and a GI50 (Jurkat) of 12 µM. It also gave a GI50 (NB4) of 3.93 µM, a GI50 (KOPN-8) of 7.23 µM and a GI50 (Kasumi-2) of 3.77 µM. It also gave a GI50 (KMS28PE) of 17.9 µM, a GI50 (REH) of 18.5 µM and a GI50 (ROS 50) of 16.4 µM. For the same molecule, the GI50 (KMS27) was 11.8 µM, the GI50 (MN-60) was 12.3 µM and the GI50 (Kasumi-1) was 1.95 µM. For the same molecule, the GI50 (SEM cells) was 2.83 µM, the GI50 (NOMO-1) was 7.4 µM and the GI50 (PL21) was 17 µM. The GI50 (KMS26) was 1.34 µM and the GI50 (Tanoue) was 8.88 µM.
